We go through 28 compounds from patent US9828339B2, “Biphenyl derivatives and methods for preparing same” (DONG-A ST CO., LTD, priority 2013, dated 2017).

For assay [1], the target named is T1, human muscarinic M3 receptor (Homo sapiens (Human), UniProt P20309). Nature of the assay: Binding assay on human muscarinic M3 receptor ([3H]-methyl scopolamine displacement). The conditions noted are these: membranes overexpressing human M3 receptor, Ki from IC50 by Cheng-Prusoff, read-out: Binding Affinity to M3 Receptor, Ki. Put shortly: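 Displacement of [3H]-methyl scopolamine from membranes overexpressing human M3, in Tris-HCl, 25 °C, 120 min; filter-bound radioactivity counted. Nonspecific binding with 5 μM atropine; Ki from IC50 via Cheng-Prusoff.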

Assay [2] deals with rhythmic bladder contractions. Nature of the assay: Rhythmic bladder contractions in rats (in vivo). On the set-up: species or system rat. The conditions noted are these: 0.3 mpk, intravenous, female Sprague-Dawley rats; amplitude reduction of bladder contractions. The source says:
[Experimental Example 3] Experiment on Rhythmic Bladder Contractions in Rats (In Vivo)
Female Sprague-Dawley rat was halothane-anesthetized, and a polyethylene catheter was inserted through urethra lay down straight and fixed. Urine in bladder was excreted through the catheter by gently massaging abdomen of the rat, and then removed. A three-way stopcock was connected to the catheter and a pressure transducer was connected to one side of the three-way stopcock to measure pressure, and a syringe was installed at the other side to inject 37° C. of saline solution. The saline solution was slowly injected until regular bladder contractions occurred repeatedly. When regular bladder contractions occurred stably, test compounds were administered intravenously through the tail vein. Inhibitory effect of the test compounds was evaluated by measuring degree of amplitude reduction of bladder contractions.

For assay [3], the target named is T1, human muscarinic M3 receptor. Nature of the assay: Antagonism assay on human muscarinic M3 receptor (carbachol-induced intracellular calcium, FLIPR Calcium 5, transfected Cos-7 cells). Type of assay: cell-based. As to conditions: functional inhibitory constant; carbachol-induced intracellular calcium in Cos-7 cells transfected with human M3 receptor. The protocol:
[Experimental Example 2] Antagonism Assay on Human Muscarinic M3 Receptor
The antagonism assay for various compounds of the present invention was conducted on antagonism to human M3 receptor in Cos-7 cells that was transfected with plasmid coding human muscarinic M3 receptor. Test compounds in various concentrations were pre-treated to the cells for 3 minutes, and then the changes of intracellular calcium were measured after treating the same with carbachol (i.e. muscarinic receptor agonist). The FLIPR® Calcium 5 assay (Molecular Devices) and Flex3 device (Molecular Devices) were used to measure concentration of calcium. Amounts of calcium before and after carbachol treatment were set as 0% and 100% respectively. Inhibition rates (%) by the compounds for increase in intracellular calcium by carbachol were calculated. The antagonistic potency of the test compounds on human muscarinic M3 receptor was calculated as the functional inhibitory constant (Ki), which can be calculated from concentration (IC50) of compound inhibiting 50% of activity of carbachol according to Cheng and Prusoff equation.
In general terms: Calcium flux is commonly read through the fluorescence of an indicator in the cells.

The structures appear in SMILES notation. pKi: −log10 of the molar value.

T1 sequence (P20309 whole entry): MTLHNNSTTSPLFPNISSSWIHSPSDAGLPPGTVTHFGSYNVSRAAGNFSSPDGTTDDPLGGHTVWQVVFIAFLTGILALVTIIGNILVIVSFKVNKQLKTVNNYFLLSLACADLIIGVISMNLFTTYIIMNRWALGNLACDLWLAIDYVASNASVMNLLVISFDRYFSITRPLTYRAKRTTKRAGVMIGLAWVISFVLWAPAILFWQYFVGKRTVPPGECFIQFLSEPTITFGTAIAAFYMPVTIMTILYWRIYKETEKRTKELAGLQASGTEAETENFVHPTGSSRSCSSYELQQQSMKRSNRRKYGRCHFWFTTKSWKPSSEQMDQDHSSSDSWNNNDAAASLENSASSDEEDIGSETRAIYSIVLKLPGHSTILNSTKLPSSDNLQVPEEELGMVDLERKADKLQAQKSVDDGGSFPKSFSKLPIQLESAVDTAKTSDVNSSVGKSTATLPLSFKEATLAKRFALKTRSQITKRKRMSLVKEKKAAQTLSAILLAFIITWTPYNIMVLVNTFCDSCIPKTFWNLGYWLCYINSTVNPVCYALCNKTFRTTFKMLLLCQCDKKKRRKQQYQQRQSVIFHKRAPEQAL

`CN1CCCC1COC(=O)Nc1ccccc1-c1ccc(F)cc1` (stereo in doubt) [Example 99, (S)-(1-methylpyrrolidin-2-yl)methyl (4′-fluoro-[1,1′-biphenyl]-2-yl)carbamate]: the negative-log Ki (pKi) in assay [1] is 8.09. Moreover, the “Inhibition of Rhythmic bladder contraction in rats” value (“Inhibition” for short) in assay [2] is on record as 16.3 ± 1.0%.
Regarding `CN1CCCC1CCOC(=O)Nc1ccccc1-c1ccc(F)cc1` (centres unmarked) [Example 1, 2-(1-methylpyrrolidin-2-yl)ethyl(4′-fluoro-[1,1′-biphenyl]-2-yl)carbamate], the pKi in assay [1] is 8.35. The “Inhibition” value in assay [2] worked out at 26.1 ± 5.1%.
As for `CN1CCCC1CCOC(=O)Nc1ccccc1-c1cc(F)c(F)c(F)c1` (centres unmarked) [Example 3, 2-(1-methylpyrrolidin-2-yl)ethyl(3′,4′,5′-trifluoro-[1,1′-biphenyl]-2-yl)carbamate], the negative logarithm of the Ki (pKi) in assay [1] is 7.94. Also, the “Inhibition” value in assay [2] is recorded as 15.9 ± 0.9%.
For `CN1CCCC1CCOC(=O)Nc1ccccc1-c1ccccc1` (centres unmarked) [Example 6, 2-(1-methylpyrrolidin-2-yl)ethyl[1,1′-biphenyl]-2-ylcarbamate], the negative logarithm of the Ki (pKi) in assay [1] is 8.61. For the same compound, the “Inhibition” value in assay [2] is 28.5 ± 4.6%.
The corresponding values for `CN1CCCC1CCOC(=O)Nc1ccccc1-c1cc(Cl)cc(Cl)c1` (centres unmarked) [Example 9, 2-(1-methylpyrrolidin-2-yl)ethyl(3′,5′-dichloro-[1,1′-biphenyl]-2-yl)carbamate] are 8.04 and 9.6 ± 1.6%.
Take `CN1CCCC1CCOC(=O)Nc1ccc(F)cc1-c1cccc(Cl)c1` (centres unmarked) [Example 17, 2-(1-methylpyrrolidin-2-yl)ethyl(3′-chloro-5-fluoro-[1,1′-biphenyl]-2-yl)carbamate]: the pKi in assay [1] was 9.00. Besides, the “Inhibition” value in assay [2] was determined as 27.9 ± 6.1%.
The corresponding values for `Cc1ccc(NC(=O)OCCC2CCCN2C)c(-c2ccccc2)c1` (centres unmarked) [Example 26, 2-(1-methylpyrrolidin-2-yl)ethyl(5-methyl-[1,1′-biphenyl]-2-yl)carbamate] are 7.73 and 11.0 ± 2.5%.
The corresponding values for `CN1CCCC1CCOC(=O)Nc1ccc(F)cc1-c1ccc(Cl)c(Cl)c1` (centres unmarked) [Example 43, 2-(1-methylpyrrolidin-2-yl)ethyl(3′,4′-dichloro-5-fluoro-[1,1′-biphenyl]-2-yl)carbamate] are 8.83 and 8.9 ± 2.3%.
The corresponding values for `O=C(Nc1ccccc1-c1ccccc1)OC[C@@H]1CCNC1` [Example 78, (R)-pyrrolidin-3-ylmethyl [1,1′-biphenyl]-2-ylcarbamate] are 8.34 and 17.9 ± 2.1%.
Turning to `CN1CC[C@H](COC(=O)Nc2ccc(F)cc2-c2ccccc2)C1` [Example 93, (S)-(1-methylpyrrolidin-3-yl)methyl (5-fluoro-[1,1′-biphenyl]-2-yl)carbamate], the pKi in assay [1] is 8.39. Moreover, in assay [2], the “Inhibition” value is given as 27.3 ± 1.9%.
The corresponding values for `Cc1cccc(-c2ccccc2NC(=O)OC[C@H]2CCN(C)C2)c1` [Example 101, (S)-(1-methylpyrrolidin-3-yl)-methyl(3′-methyl-[1,1′-biphenyl]-2-yl)carbamate] are 8.42 and 20.1 ± 1.7%.
The corresponding values for `CCN1CCC[C@H]1COC(=O)Nc1ccccc1-c1ccccc1` [Example 106, (S)-(1-ethylpyrrolidin-2-yl)methyl [1,1′-biphenyl]-2-ylcarbamate] are 9.10 and 32.7 ± 5.2%.
The corresponding values for `CN1CC[C@H](COC(=O)Nc2ccc(F)cc2-c2cccc(F)c2)C1` [Example 108, (S)-(1-methylpyrrolidin-3-yl)-methyl(3′,5-difluoro-[1,1′-biphenyl]-2-yl)carbamate] are 8.40 and 18.1 ± 1.4%.
With `CN1CCC[C@@H]1COC(=O)Nc1ccccc1-c1ccccc1` [Example 109, (R)-(1-methylpyrrolidin-2-yl)-methyl [1,1′-biphenyl]-2-ylcarbamate], the negative logarithm of the Ki (pKi) in assay [1] was 8.27. Further, in assay [2], the “Inhibition” value was 18.1 ± 1.7%.
The corresponding values for `CC(C)N1CCC[C@H]1COC(=O)Nc1ccccc1-c1ccccc1` [Example 112, (S)-(1-isopropylpyrrolidin-2-yl)-methyl [1,1′-biphenyl]-2-ylcarbamate] are 8.42 and 34.8 ± 2.9%.
The corresponding values for `CN1CC[C@H](COC(=O)Nc2ccccc2-c2ccc(F)c(Cl)c2)C1` [Example 121, (S)-(1-methylpyrrolidin-3-yl)methyl(3′-chloro-4′-fluoro-[1,1′-biphenyl]-2-yl)carbamate] are 8.76 and 31.4 ± 6.1%.
The corresponding values for `CN1CCC[C@H]1COC(=O)Nc1ccccc1-c1cccc(F)c1` [Example 160, (S)-(1-methylpyrrolidin-2-yl)methyl(3′-fluoro-[1,1′-biphenyl]-2-yl)carbamate] are 8.37 and 15.5 ± 2.4%.
Take `CN1CCC[C@H]1COC(=O)Nc1ccccc1-c1cccc(Cl)c1` [Example 165, (S)-(1-methylpyrrolidin-2-yl)methyl(3′-chloro-[1,1′-biphenyl]-2-yl)carbamate]: in assay [1], the negative-log Ki (pKi) was 9.20. In addition, in assay [2], the “Inhibition” value is 34.5 ± 2.5%.
As for `CN1CCC[C@H]1COC(=O)Nc1ccc(F)cc1-c1cc(F)cc(F)c1` [Example 172, (S)-(1-methylpyrrolidin-2-yl)methyl(3′,5,5′-trifluoro-[1,1′-biphenyl]-2-yl)carbamate], the pKi in assay [1] is 8.21. In addition, in assay [2], the “Inhibition” value is given as 12.4 ± 2.7%.
Regarding `CN1CCC[C@H]1COC(=O)Nc1ccc(F)cc1-c1ccc(Cl)c(Cl)c1` [Example 177, (S)-(1-methylpyrrolidin-2-yl)methyl (3′,4′-dichloro-5-fluoro-[1,1′-biphenyl]-2-yl)carbamate], the negative logarithm of the Ki (pKi) in assay [1] was 8.20. In assay [2], the “Inhibition” value turned out to be 11.3 ± 2.2%.
As for `CN1CCC[C@H]1COC(=O)Nc1ccc(F)cc1-c1cccc(C(F)(F)F)c1` [Example 180, (S)-(1-methylpyrrolidin-2-yl)methyl(5-fluoro-3′-(trifluoromethyl)-[1,1′-biphenyl]-2-yl)carbamate], the pKi in assay [1] was 8.04. In assay [2], the “Inhibition” value was determined as 6.3 ± 1.3%.
Consider `CN1CCC[C@H]1COC(=O)Nc1ccccc1-c1ccc(F)cc1F` [Example 188, (S)-(1-methylpyrrolidin-2-yl)methyl(2′,4′-difluoro-[1,1′-biphenyl]-2-yl)carbamate], for which the negative logarithm of the Ki (pKi) was 7.86 in assay [1] and 8.65 in assay [3].
The corresponding values for `CN1CCC[C@H]1COC(=O)Nc1ccccc1-c1cc(Cl)ccc1F` [Example 190, (S)-(1-methylpyrrolidin-2-yl)methyl(3′-chloro-6′-fluoro-[1,1′-biphenyl]-2-yl)carbamate] are 8.66 and 9.02.
On to `Cc1cccc(-c2cc(F)ccc2NC(=O)OC[C@@H]2CCN(C)C2)c1` [Example 192, (R)-(1-methylpyrrolidin-3-yl)methyl(5-fluoro-3′-methyl-[1,1′-biphenyl]-2-yl)carbamate], for which the pKi in assay [1] is 8.34. In addition, the “Inhibition” value in assay [2] turned out to be 18.6 ± 3.6%.
As to `CCN1CC[C@@H](COC(=O)Nc2ccc(F)cc2-c2ccc(F)c(Cl)c2)C1` [Example 196, (R)-(1-ethylpyrrolidin-3-yl)methyl (3′-chloro-4′,5-difluoro-[1,1′-biphenyl]-2-yl)carbamate], the results for the pKi in assay [1] and in assay [3] were 8.12 and 8.81, respectively.
The corresponding values for `CN1CCC[C@H]1COC(=O)Nc1ccc(F)cc1-c1ccc(F)c(Cl)c1` [Example 211, (S)-(1-methylpyrrolidin-2-yl)methyl(3′-chloro-4′,5-difluoro-[1,1′-biphenyl]-2-yl)carbamate] are 8.00 and 8.00.
Regarding `COc1ccc(NC(=O)OC[C@@H]2CCCN2C)c(-c2cccc(Cl)c2)c1` [Example 224, (S)-(1-methylpyrrolidin-2-yl)methyl(3′-chloro-5-methoxy-[1,1′-biphenyl]-2-yl)carbamate], the negative logarithm of the Ki (pKi) in assay [1] is 7.82; in assay [3], 8.12.
Turning to `COc1ccc(NC(=O)OC[C@@H]2CCCN2C)c(-c2cc(Cl)cc(Cl)c2)c1` [Example 226, (S)-(1-methylpyrrolidin-2-yl)methyl (3′,5′-dichloro-5-methoxy-[1,1′-biphenyl]-2-yl)carbamate], the negative logarithm of the Ki (pKi) in assay [1] was 7.78; in assay [3] it was 8.30.

Broadly, the pKi is the Ki on a negative log10 scale, so that one unit is a factor of ten.
